Measured values: US11629171B2, “Beta-hairpin peptidomimetics” (POLYPHOR AG, priority 2017, dated 2023)
≈ marks a conversion by molar mass, not a printed value. Where a SMILES comes first, the peptide text is derived from it. Bridges are numbered along the chain shown (N, C = ends). Roman numbers before positions name the chains, in order. [ ]: non-standard residue; d: D form. Thr(ol) = C[C@@H](O)[C@H](N)CO; Tle = CC(C)(C)[C@H](N)C(=O)O; NMeV = CN[C@H](C(=O)O)C(C)C; Hiv = CC(C)[C@H](O)C(=O)O; dDab = NCC[C@@H](N)C(=O)O; hSer = N[C@@H](CCO)C(=O)O; Orn = NCCC[C@H](N)C(=O)O; Dab = NCC[C@H](N)C(=O)O; Dap = NC[C@H](N)C(=O)O

Columns and labels:
Format in all cases: cell-based
[1] = test system: Acinetobacter baumannii 872842; conditions: 872842
Description: (§1) The in vitro antimicrobial activities of the peptides were determined in 96-well plates (Greiner, polystyrene) by the standard CLSI broth microdilution method (Clinical and Laboratory Standards Institute 2014. Performance standards for antimicrobial susceptibility testing, 24th informational supplement. Approved standard CLSI M100-S24; Clinical and Laboratory Standards Institute, Wayne, Pa.). The following microorganisms were used to determine antibiotic activity of the peptides: Escherichia coli ATCC 25922, Klebsiella pneumoniae SSI #3010^a), Acinetobacter baumannii DSM 30008, Pseudomonas aeruginosa ATCC 27853 and the clinical isolates Escherichia coli 926415^b), Klebsiella pneumoniae 968733^b), Acinetobacter baumannii 872842^b), Enterobacter cloacae 848840^b) and Escherichia coli MCR-1 Af45^c). Before preparation of inocula, Escherichia coli MCR-1 Af45 was subcultured on Mueller-Hinton II (MH-cation adjusted) agar containing 2 μg/mL colistin. ^a) Obtained from Statens Serum Institut (SSI), Copenhagen, Denmark^b) Obtained from International Health Management Associates, Inc. (IHMA Europe Sàrl), Epalinges, Switzerland^c) Obtained from Prof. Patrice Nordmann, University of Fribourg, Fribourg, Switzerland
(§2) Inocula of the microorganisms were diluted into Mueller-Hinton II (MH-cation adjusted) broth and compared with a 0.5 McFarland standard to give appr. 10^6 colony forming units (CFU)/mL. Aliquots (90 μL) of inoculum were added to 10 μL of MH-II broth+P-80 (Polysorbate 80, 0.002% final concentration, v/v) containing the peptide in serial two-fold dilutions. Antimicrobial activities of the peptides were expressed as the minimal inhibitory concentration (MIC) in μg/mL at which no visible growth was observed after 18-20 hours of incubation at 35° C.

[2] = test system: Acinetobacter baumannii DSM 30008; conditions: DSM 30008
Description: as §1, §2

[3] = test system: Enterobacter cloacae 848840; conditions: 848840
Description: as §1, §2

Escherichia coli 926415 = conditions: 926415
Description: as §1, §2

[4] = test system: Escherichia coli ATCC 25922; conditions: ATCC 25922
Description: as §1, §2

[5] = test system: Klebsiella pneumoniae 968733; conditions: 968733
Description: as §1, §2

[6] = test system: Klebsiella pneumoniae SSI #3010; conditions: SSI #3010
Description: as §1, §2

[7] = test system: Pseudomonas aeruginosa ATCC 27853; conditions: ATCC 27853
Description: as §1, §2

[8] = test system: human red blood cells (hRBC); experiment: Hemolysis; conditions: red cells of human, 1 h, 200
Method in brief: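 Read-out is supernatant absorbance at 540 nm, normalised to full lysis by 2% Triton X-100 and zero lysis by PBS with 10% water. Peptides (200 μg/mL) were exposed to 20% v/v washed human erythrocytes at 37° C for 1 h under shaking.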

| SMILES | MIC [1] [µg/mL] | MIC [2] [µg/mL] | MIC [3] [µg/mL] | MIC (Escherichia coli 926415) [µg/mL] | MIC [4] [µg/mL] | MIC [5] [µg/mL] | MIC [6] [µg/mL] | MIC [7] [µg/mL] | Hemolysis at 200 μg/mL [8] [%] | Acinetobacter baumannii DSM 30008 MIC [2] [µg/mL] | Escherichia coli ATCC 25922 MIC [4] [µg/mL] | Klebsiella pneumoniae SSI #3010 MIC [6] [µg/mL] | Pseudomonas aeruginosa ATCC 27853 MIC [7] [µg/mL] |
| --- | --- | --- | --- | --- | --- | --- | --- | --- | --- | --- | --- | --- | --- |
| CN[C@H](C(=O)N[C@H](C(=O)N[C@@H](Cc1ccc(O)cc1)C(=O)N[C@H]1CSSC[C@@H](C(=O)N[C@H](C(=O)N[C@@H](C)C(=O)N[C@@H](CO)C(N)=O)C(C)C)NC(=O)[C@H](Cc2c[nH]c3ccccc23)NC(=O)[C@H](CO)NC(=O)[C@@H](CCN)NC(=O)[C@H](CCC(=O)N[C@@H](CCN)C(=O)N[C@H](C(=O)N[C@@H](CCN)C(=O)N[C@H]2CCNC(=O)[C@H]([C@@H](C)O)NC(=O)[C@H](CCN)NC(=O)[C@H](CCN)NC(=O)[C@H](CC(C)C)NC(=O)[C@@H](CC(C)C)NC(=O)[C@H](CCN)NC2=O)[C@@H](C)O)NC1=O)[C@@H](C)O)C(C)C [Ex. 184] (I: H-[NMeV]TYCE[dDab]SWCVAS-NH2 / II: [Dab]T[Dab][Dab][Dab][dL]L[Dab][Dab]T; disulfide I:4-I:9; amide I:5-II:N; lactam II:4-II:C) | 1 (≈ 0.422 µM) | 0.125 (≈ 0.0527 µM) | 1 (≈ 0.422 µM) | 2 (≈ 0.844 µM) | 0.125 (≈ 0.0527 µM) | 8 (≈ 3.38 µM) | 0.25 (≈ 0.105 µM) | 0.25 (≈ 0.105 µM) | <1 |  |  |  |  |
| CC(=O)N[C@H](C(=O)N[C@H]1CSSC[C@@H](C(=O)N[C@@H](C)C(=O)N[C@@H](C(N)=O)[C@H](C)O)NC(=O)[C@H](C(C)C)NC(=O)[C@H](CO)NC(=O)[C@H](Cc2c[nH]c3ccccc23)NC(=O)[C@H](CO)NC(=O)[C@@H](CCN)NC(=O)[C@H](CCC(=O)N[C@@H](CCN)C(=O)N[C@H](C(=O)N[C@@H](CN)C(=O)N[C@H]2CCNC(=O)[C@H]([C@@H](C)O)NC(=O)[C@H](CCN)NC(=O)[C@H](CCN)NC(=O)[C@H](CC(C)C)NC(=O)[C@@H](CC(C)C)NC(=O)[C@H](CCN)NC2=O)[C@@H](C)O)NC(=O)[C@H](CCN)NC(=O)[C@H](Cc2ccc(O)cc2)NC1=O)C(C)C [Ex. 368] (I: Ac-VCY[Dab]E[dDab]SWSVCA[dT]-NH2 / II: [Dab]T[Dap][Dab][Dab][dL]L[Dab][Dab]T; disulfide I:2-I:11; amide I:5-II:N; lactam II:4-II:C) | 0.03125 (≈ 0.0126 µM) |  | 0.03125 (≈ 0.0126 µM) | 0.01562 (≈ 0.00629 µM) |  | 0.0625 (≈ 0.0252 µM) |  |  | 1 | 0.007813 | 0.01562 | 0.03125 | 0.0625 |
| CC(=O)N[C@H](C(=O)N[C@H]1CSSC[C@@H](C(=O)N[C@H](C(N)=O)[C@@H](C)O)NC(=O)[C@H](C(C)(C)C)NC(=O)[C@H](CCC(=O)O)NC(=O)[C@H](Cc2c[nH]c3ccccc23)NC(=O)[C@H](CO)NC(=O)[C@@H](CCN)NC(=O)[C@H](CCC(=O)N[C@@H](CCN)C(=O)N[C@H](C(=O)N[C@@H](CN)C(=O)N[C@H]2CCNC(=O)[C@H]([C@@H](C)O)NC(=O)[C@H](CCN)NC(=O)[C@H](CCN)NC(=O)[C@H](CC(C)C)NC(=O)[C@@H](CC(C)C)NC(=O)[C@H](CCN)NC2=O)[C@@H](C)O)NC(=O)[C@H](CCN)NC(=O)[C@H](Cc2ccc(O)cc2)NC1=O)C(C)C [Ex. 135] (I: Ac-VCY[Dab]E[dDab]SWE[Tle]CT-NH2 / II: [Dab]T[Dap][Dab][Dab][dL]L[Dab][Dab]T; disulfide I:2-I:11; amide I:5-II:N; lactam II:4-II:C) | 0.03125 (≈ 0.0127 µM) | 0.03125 (≈ 0.0127 µM) | 0.0625 (≈ 0.0253 µM) | 0.0625 (≈ 0.0253 µM) | 0.03125 (≈ 0.0127 µM) | 0.125 (≈ 0.0506 µM) | 0.0625 (≈ 0.0253 µM) | 0.125 (≈ 0.0506 µM) | <1 |  |  |  |  |
| CC(=O)N[C@H](C(=O)N[C@H]1CSSC[C@@H](C(=O)N[C@@H](CO)C(N)=O)NC(=O)[C@H](C(C)C)NC(=O)[C@H](CCC(=O)O)NC(=O)[C@H](Cc2c[nH]c3ccccc23)NC(=O)[C@H](CCN)NC(=O)[C@@H](CCN)NC(=O)[C@H](CCC(=O)N[C@@H](CCN)C(=O)N[C@H](C(=O)N[C@@H](CN)C(=O)N[C@H]2CCNC(=O)[C@H]([C@@H](C)O)NC(=O)[C@H](CCN)NC(=O)[C@H](CCN)NC(=O)[C@H](CC(C)C)NC(=O)[C@@H](CC(C)C)NC(=O)[C@H](CCN)NC2=O)[C@@H](C)O)NC(=O)[C@H](CO)NC(=O)[C@H](Cc2ccc(O)cc2)NC1=O)C(C)C [Ex. 268] (I: Ac-VCYSE[dDab][Dab]WEVCS-NH2 / II: [Dab]T[Dap][Dab][Dab][dL]L[Dab][Dab]T; disulfide I:2-I:11; amide I:5-II:N; lactam II:4-II:C) | 0.125 (≈ 0.0512 µM) | 0.03125 (≈ 0.0128 µM) | 0.25 (≈ 0.102 µM) | 0.5 (≈ 0.205 µM) | 0.0625 (≈ 0.0256 µM) | 0.5 (≈ 0.205 µM) | 0.0625 (≈ 0.0256 µM) | 0.125 (≈ 0.0512 µM) | <1 |  |  |  |  |
| CC(=O)N[C@H](C(=O)N[C@H]1CSSC[C@@H](C(=O)N[C@@H](CO)C(N)=O)NC(=O)[C@H](C(C)C)NC(=O)[C@H](CO)NC(=O)[C@H](Cc2c[nH]c3ccccc23)NC(=O)[C@H](CCC(=O)N[C@@H](CCN)C(=O)N[C@H](C(=O)N[C@@H](CN)C(=O)N[C@H]2CCNC(=O)[C@H]([C@@H](C)O)NC(=O)[C@H](CCN)NC(=O)[C@H](CCN)NC(=O)[C@H](CC(C)C)NC(=O)[C@@H](CC(C)C)NC(=O)[C@H](CCN)NC2=O)[C@@H](C)O)NC(=O)[C@@H](CCN)NC(=O)[C@H](CCCN)NC(=O)[C@H]([C@@H](C)O)NC(=O)[C@H](Cc2ccc(O)cc2)NC1=O)C(C)C [Ex. 355] (I: Ac-VCYT[Orn][dDab]EWSVCS-NH2 / II: [Dab]T[Dap][Dab][Dab][dL]L[Dab][Dab]T; disulfide I:2-I:11; amide I:7-II:N; lactam II:4-II:C) | 0.0625 (≈ 0.0258 µM) |  | 0.125 (≈ 0.0515 µM) | 0.25 (≈ 0.103 µM) |  | 0.25 (≈ 0.103 µM) |  |  | 6 | 0.03125 | 0.03125 | 0.0625 | 0.125 |
| CC(C)C[C@@H]1NC(=O)[C@@H](CC(C)C)NC(=O)[C@H](CCN)NC(=O)[C@@H](NC(=O)[C@H](CN)NC(=O)[C@@H](NC(=O)[C@H](CCN)NC(=O)CC[C@@H]2NC(=O)[C@H](CO)NC(=O)[C@H](Cc3ccc(O)cc3)NC(=O)[C@@H](NC(=O)[C@@H](O)C(C)C)CSSC[C@@H](C(=O)N[C@@H](CO)C(N)=O)NC(=O)[C@H](C(C)(C)C)NC(=O)[C@H](CO)NC(=O)[C@H](Cc3c[nH]c4ccccc34)NC(=O)[C@H](CCN)NC(=O)[C@@H](CCN)NC2=O)[C@@H](C)O)CCNC(=O)[C@H]([C@@H](C)O)NC(=O)[C@H](CCN)NC(=O)[C@H](CCN)NC1=O [Ex. 271] (I: H-[Hiv]CYSE[dDab][Dab]WS[Tle]CS-NH2 / II: [Dab]T[Dap][Dab][Dab][dL]L[Dab][Dab]T; disulfide I:2-I:11; amide I:5-II:N; lactam II:4-II:C) | 0.0625 (≈ 0.0264 µM) | 0.03125 (≈ 0.0132 µM) | 0.25 (≈ 0.105 µM) | 0.0625 (≈ 0.0264 µM) | 0.03125 (≈ 0.0132 µM) | 0.0625 (≈ 0.0264 µM) | 0.0625 (≈ 0.0264 µM) | 0.0625 (≈ 0.0264 µM) | <1 |  |  |  |  |
| CC(C)C[C@@H]1NC(=O)[C@@H](CC(C)C)NC(=O)[C@H](CCN)NC(=O)[C@@H](NC(=O)[C@H](CCN)NC(=O)[C@@H](NC(=O)[C@H](CCN)NC(=O)CC[C@@H]2NC(=O)[C@H](CN)NC(=O)[C@H](Cc3ccc(O)cc3)NC(=O)[C@@H](NC(=O)[C@@H](O)C(C)C)CSSC[C@@H](C(=O)N[C@H](CO)[C@@H](C)O)NC(=O)[C@H](C(C)(C)C)NC(=O)[C@H](CO)NC(=O)[C@H](Cc3c[nH]c4ccccc34)NC(=O)[C@H](CCO)NC(=O)[C@@H](CCN)NC2=O)[C@@H](C)O)CCNC(=O)[C@H]([C@@H](C)O)NC(=O)[C@H](CCN)NC(=O)[C@H](CCN)NC1=O [Ex. 79] (I: H-[Hiv]CY[Dap]E[dDab][hSer]WS[Tle]C[Thr(ol)] / II: [Dab]T[Dab][Dab][Dab][dL]L[Dab][Dab]T; disulfide I:2-I:11; amide I:5-II:N; lactam II:4-II:C) | 0.0625 (≈ 0.0262 µM) | 0.03125 (≈ 0.0131 µM) | 0.0625 (≈ 0.0262 µM) | 0.0625 (≈ 0.0262 µM) | 0.0625 (≈ 0.0262 µM) | 0.0625 (≈ 0.0262 µM) | 0.0625 (≈ 0.0262 µM) | 0.125 (≈ 0.0524 µM) | <1 |  |  |  |  |
